# Measured values published in publication PMC10291549, “Reaction Behavior of [1,3-Diethyl-4,5-diphenyl-1H-imidazol-2-ylidene] Containing Gold(I/III) Complexes against Ingredients of the Cell Culture Medium and the Meaning on the Potential Use for Cancer Eradication Therapy” (Journal of Medicinal Chemistry, 2023).
# Legend:
# [1] = HPLC control experiment with GSH in PBS; format: physicochemical; settings: 20 equiv GSH in PBS
# Procedure: The reduced transformation (compared to the direct reaction with GSH) might be the consequence of the high chloride concentration in the medium. To confirm this assumption, 5 was incubated in a control experiment with 20 equiv of GSH (as described above) in phosphate buffered saline (PBS). At t0h, 65.7% of 12 was formed. The amount increased during 24 h to 68.0% of 12 and 2.1% of 8 appeared (Figure S33).
# (§1) Experiments in ACN/water: 1.0 mM solutions of the respective complex were prepared in ACN and diluted with HPLC-grade water (50/50, (v/v)) containing the double-concentrated amount of respective amino acid (20 mM), GSH (20 mM), sodium ascorbate (20 mM), or NADPH (20 mM). As a chloride source, an aqueous solution of KCl 0.8 g/L and NaCl 12 g/L was used. In each case, a final complex concentration of 0.5 mM was achieved. The solutions were incubated for 24 h at rt. For the experiments with RPMI 1640, the aqueous phase was replaced by a cell culture medium.
# (§2) Samples (20 μL each) were taken at appropriate time points (t = 0 (1.5 min), 0.5, 1, 1.5, 2, 8, 12, and 24 h) and analyzed with a Shimadzu prominence HPLC system. The mobile phase consisted of ACN (HPLC-grade) and water (HPLC-grade) with 0.1% TFA. To achieve a separation of the compounds, gradient elution from (70/30 (v/v) to 90/10 (v/v)) of ACN/water (0.1% trifluoroacetic acid (TFA)) was used with a flow rate of 1 mL/min at an oven temperature of 35 °C. All solvents have been degassed before use. The injection volume was 20 μL, and the detection wavelength was set at 235 nm, to detect the gold complexes and the amino acids in the chromatogram.
# IGROV1 cells = format: cell-based; settings: 72 h incubation; mean ± SD of two or three independent experiments; read-out: metabolic activity IC50, IGROV1
# [2] = test system: SV-80 lung fibroblast cells; assay: Modified MTT assay in noncancerous cells; format: cell-based; settings: at 10 μM; mean of three independent experiments
# [3] = HPLC reactivity study with NADPH; format: physicochemical; settings: 24 h
# Procedure: (§3) GSH caused only substitution reactions, without reduction of Au(I) to Au(0). […] Neither reduction to gold(0), release of the NHC ligand, nor coordination to the gold(I) center occurred.
# as §1, §2
# [4] = HPLC degradation study in ACN/RPMI 1640 cell culture medium; settings: t24h; ACN/RPMI 1640 50/50; 0.5 mM
# IGROV1-CSC cells = format: cell-based; settings: 72 h incubation; mean ± SD of two or three independent experiments; read-out: metabolic activity IC50, IGROV1-CSC
# A549 cells = format: cell-based; settings: 72 h incubation; mean ± SD of two or three independent experiments; read-out: metabolic activity IC50, A549
# [5] = test system: K562-R cells (Doxorubicin-resistant subclone); format: cell-based; settings: 72 h incubation; mean ± SD of two or three independent experiments; read-out: metabolic activity IC50, K562-R
# [6] = test system: A549-R cells (Taxol/Paclitaxel-resistant subclone); format: cell-based; settings: 72 h incubation; mean ± SD of two or three independent experiments; read-out: metabolic activity IC50, A549-R
# [7] = HPLC reactivity study with GSH in ACN/water; format: physicochemical; settings: t0h (1.5 min); 20 equiv GSH; ACN/water 50/50; 0.5 mM
# Procedure: All nucleophiles (chloride, amino acids, and GSH) were separately reacted with 5–11 in ACN/water = 50/50 (v/v) mixtures at a complex concentration 0.5 mM. This solvent composition was chosen to prevent precipitation of the complex and the formed degradation products.
# Amino acids, as well as GSH, were used in 20-fold excess, as realized at a complex concentration of 10 μM in the cell culture medium. Thereto, the respective complex, dissolved in ACN (1 mM), was combined with the same amount of aqueous solution of the nucleophile (20 mM).
# The mixture was then incubated for 24 h at rt and monitored at various time points via HPLC using an RP-C18 column and gradient elution (70/30 (v/v) to 90/10 (v/v)) of ACN/water (0.1% trifluoroacetic acid (TFA)).
# as §1, §2
# K562 cells = format: cell-based; settings: 72 h incubation; mean ± SD of two or three independent experiments; read-out: metabolic activity IC50, K562
# [8] = test system: MCF-7TamR cells (Tamoxifen-resistant subline); format: cell-based, human; settings: 72 h incubation; mean ± SD of two or three independent experiments; read-out: metabolic activity IC50, MCF-7TamR
# [9] = HPLC reactivity study with sodium ascorbate; format: physicochemical; settings: 24 h
# Procedure: as §3, §1, §2
# [10] = test system: A2780cis cells (Cisplatin-resistant); format: cell-based, human; settings: 72 h incubation; mean ± SD of two or three independent experiments; read-out: metabolic activity IC50, A2780cis
# [11] = HPLC reactivity study in chloride containing ACN/water; format: physicochemical; settings: t24h; chloride containing ACN/water 50/50; 0.5 mM
# MCF-7 cells = format: cell-based, human; settings: 72 h incubation; mean ± SD of two or three independent experiments; read-out: metabolic activity IC50, MCF-7
# A2780 cells = format: cell-based, human; settings: 72 h incubation; mean ± SD of two or three independent experiments; read-out: metabolic activity IC50, A2780
substance,measurement,setting,value
"Chlorido[1,3-diethyl-4,5-diphenyl-1H-imidazol-2-ylidene]gold(I) [Complex 5]",formation of 12,[1]; t0h,65.7%
same,formation of 8,[1]; t24h,2.1%
same,formation of 12,[1]; t24h,68.0%
same,IC50,IGROV1 cells,7.53 ± 1.9 µM
same,metabolic activity (remaining) in SV-80 cells,[2],64%
same,ligand scrambling to 8,[3],5.6%
same,formation of 8,[4],6.2%
same,formation of GSH-adduct 12,[4],5.1%
same,IC50,IGROV1-CSC cells,9.18 ± 1.32 µM
same,IC50,A549 cells,> 10 µM
same,IC50,[5],> 10 µM
same,IC50,[6],> 10 µM
same,substitution to (NHC)Au(I)-GSH adduct 12,[7],quantitatively
same,IC50,K562 cells,> 10 µM
same,IC50,[8],4.95 ± 0.39 µM
same,ligand scrambling to 8,[9],3.4%
same,IC50,[10],4.08 ± 0.8 µM
same,formation of 8 (ligand scrambling / reduction),[11],0.9%
same,IC50,MCF-7 cells,5.76 ± 0.88 µM
same,IC50,A2780 cells,9.45 ± 0.96 µM
